Biological target: T1, HDM2 (Homo sapiens, UniProt Q00987)
T1 construct: Thioredoxin (N); made in house; host or cells: E. coli strain BL21(DE3)Rosetta
Assay: FRET assay (HDM2 inhibition; method not described in this part)
Type: binding
Settings: Table 2

T1 sequence (Q00987 17-125): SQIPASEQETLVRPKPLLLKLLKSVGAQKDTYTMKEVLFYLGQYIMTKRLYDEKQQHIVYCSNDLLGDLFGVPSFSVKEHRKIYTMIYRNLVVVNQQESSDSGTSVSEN

SMILES | IC50 [nM]
CCc1ccccc1-c1nc2nc(C(=O)O)nc(N[C@H](C)C3CCC3)c2n1Cc1ccc(C(F)(F)F)cc1 [Example 2.81, 6-{[(1R)-1-cyclobutylethyl]amino} -8-(2-ethylphenyl)-7-[4-(trifluoromethyl)benzyl] - 7H-purine-2-carboxylic acid] | 18
CCc1ccc(C)cc1-c1nc2nc(C(=O)O)nc(N[C@H](C)C3CCC3)c2n1Cc1ccc(C(F)(F)F)cc1 [Example 2.82, 6-{[(1R)-1-cyclobutylethyl]amino}-8-(2-ethyl-5-methylphenyl)-7-[4-(trifluoromethyl)benzyl]-7H-purine-2-carboxylic acid] | 13.6
C[C@@H](Nc1nc(C(=O)O)nc2nc(-c3cnn(C)c3)n(Cc3ccc(C(F)(F)F)cc3)c12)C1CCC1 [Example 2.83, 6-{[(1R)-1-cyclobutylethyl]amino} -8-(1-methyl-1H-pyrazol-4-yl)-7-[4-(trifluoromethyl)benzyl] - 7H-purine-2-carboxylic acid] | 189
Cc1noc(C)c1-c1nc2nc(C(=O)O)nc(N[C@H](C)C3CCC3)c2n1Cc1ccc(C(F)(F)F)cc1 [Example 2.84, 6-{[(1R)-1-cyclobutylethyl]amino} -8-(3,5-dimethylisoxazol-4-yl)-7-[4-(trifluoromethyl)benzyl] - 7H-purine-2-carboxylic acid] | 79.4

Same assay, conditions: Table 3

SMILES | IC50 [nM]
C[C@@H](Nc1nc(C(=O)O)nc2nc(-c3nccn3C)n(Cc3ccc(C(F)(F)F)cc3)c12)C1CCC1 [Example 3.1, (R)-6-((1-cyclobutylethyl)amino)-8-(1-methyl-1H-imidazol-2-yl)-7-(4-(trifluoromethyl)benzyl)-7H-purine-2-carboxylic acid] | 161
CC(C)c1ccnc(-c2nc3nc(C(=O)O)nc(N[C@H](C)C4CCC4)c3n2Cc2ccc(C(F)(F)F)cc2)n1 [Example 3.2, (R)-6-((1-cyclobutylethyl)amino)-8-(4-isopropylpyrimidin-2-yl)-7-(4-(trifluoromethyl)benzyl)-7H-purine-2-carboxylic acid] | 22
CC(C)c1cnc(-c2nc3nc(C(=O)O)nc(N[C@H](C)C4CCC4)c3n2Cc2ccc(C(F)(F)F)cc2)s1 [Example 3.3, (R)-6-((1-cyclobutylethyl)amino)-8-(5-isopropylthiazol-2-yl)-7-(4-(trifluoromethyl)benzyl)-7H-purine-2-carboxylic acid] | 57.9
C[C@@H](Nc1nc(C(=O)O)nc2nc(-c3ncccn3)n(Cc3ccc(C(F)(F)F)cc3)c12)C1CCC1 [Example 3.4, 6-{[(1R)-1-cyclobutylethyl]amino}-8-pyrimidin-2-yl-7-[4-(trifluoromethyl)benzyl] -7H-purine-2-carboxylic acid] | 69.8
C[C@@H](Nc1nc(C(=O)O)nc2nc(-c3ncco3)n(Cc3ccc(C(F)(F)F)cc3)c12)C1CCC1 [Example 3.5, 6-{[(1R)-1-cyclobutylethyl]amino}-8-(1,3-oxazol-2-yl)-7-[4-(trifluoromethyl)benzyl] -7H-purine-2-carboxylic acid] | 30
CC(C)c1csc(-c2nc3nc(C(=O)O)nc(N[C@H](C)C4CCC4)c3n2Cc2ccc(C(F)(F)F)cc2)n1 [Example 3.6, 6-{[(1R)-1-cyclobutylethyl]amino}-8-[4-(1-methylethyl)-1,3-thiazol-2-yl]-7-[4-(trifluoromethyl)benzyl] -7H-purine-2-carboxylic acid] | 312
Cc1cnc(-c2nc3nc(C(=O)O)nc(N[C@H](C)C4CCC4)c3n2Cc2ccc(C(F)(F)F)cc2)s1 [Example 3.7, 6-{[(1R)-1-cyclobutylethyl]amino}-8-(5-methyl-1,3-thiazol-2-yl)-7-[4-(trifluoromethyl)benzyl] -7H-purine-2-carboxylic acid] | 42
C[C@@H](Nc1nc(C(=O)O)nc2nc(-c3nccs3)n(Cc3ccc(Cl)cc3)c12)C1CC1 [Example 3.8, 7-(4-chlorobenzyl)-6-{[(1R)-1-cyclopropylethyl]amino}-8-(1,3-thiazol-2-yl)-7H-purine-2-carboxylic acid] | 98.8
C[C@@H](Nc1nc(C(=O)O)nc2nc(-c3nccs3)n(Cc3ccc(C(F)(F)F)cc3)c12)C1CCC1 [Example 3.9, 6-{[(1R)-1-cyclobutylethyl]amino}-8-(1,3-thiazol-2-yl)-7-[4-(trifluoromethyl)benzyl] -7H-purine-2-carboxylic acid] | 7.86

Same assay, conditions: Table 4

SMILES | IC50 [nM]
CCOc1ccc(C)cc1-c1nc2nc(C(=O)O)nc(N[C@H](C)C3CCC3)c2n1Cc1ccc(Cl)cc1 [Example 4.1, (R)-7-(4-chlorobenzyl)-6-((1-cyclobutylethyl)amino)-8-(2-ethoxy-5-methylphenyl)-7H-purine-2-carboxylic acid] | 32
Cc1ccc(C)c(-c2nc3nc(C(=O)O)nc(N[C@H](C)C4CCC4)c3n2Cc2ccc(Cl)cc2)c1 [Example 4.2, (R)-7-(4-chlorobenzyl)-6-((1-cyclobutylethyl)amino)-8-(2,5-dimethylphenyl)-7H-purine-2-carboxylic acid] | 40.4
C=CCCOc1ccc(C)cc1-c1nc2nc(C(=O)O)nc(N[C@H](C)C3CC3)c2n1Cc1ccc(Cl)cc1 [Example 4.3, (R)-8-(2-(but-3-en-1-yloxy)-5-methylphenyl)-7-(4-chlorobenzyl)-6-((1-cyclopropylethyl)amino)-7H-purine-2-carboxylic acid] | 104
COCCCOc1ccc(C)cc1-c1nc2nc(C(=O)O)nc(N[C@H](C)C3CCC3)c2n1Cc1ccc(Cl)cc1 [Example 4.4, (R)-7-(4-chlorobenzyl)-6-((1-cyclobutylethyl)amino)-8-(2-(3-methoxypropoxy)-5-methylphenyl)-7H-purine-2-carboxylic acid] | 48.7
COCCCOc1ccc(C)cc1-c1nc2nc(C(=O)O)nc(N[C@H](C)C3CC3)c2n1Cc1ccc(Cl)cc1 [Example 4.5, (R)-7-(4-chlorobenzyl)-6-((1-cyclopropylethyl)amino)-8-(2-(3-methoxypropoxy)-5-methylphenyl)-7H-purine-2-carboxylic acid] | 162
Cc1ccc(OCCCO)c(-c2nc3nc(C(=O)O)nc(N[C@H](C)C4CCC4)c3n2Cc2ccc(Cl)cc2)c1 [Example 4.6, (R)-7-(4-chlorobenzyl)-6-((1-cyclobutylethyl)amino)-8-(2-(3-hydroxypropoxy)-5-methylphenyl)-7H-purine-2-carboxylic acid] | 33.7
CCOc1ccc(C)cc1-c1nc2nc(C(=O)O)nc(N[C@H](C)C3CC3)c2n1Cc1ccc(Cl)cc1 [Example 4.7, (R)-7-(4-chlorobenzyl)-6-((1-cyclopropylethyl)amino)-8-(2-ethoxy-5-methylphenyl)-7H-purine-2-carboxylic acid] | 123
COCCOc1ccc(C)cc1-c1nc2nc(C(=O)O)nc(N[C@H](C)C3CCC3)c2n1Cc1ccc(Cl)cc1 [Example 4.8, (R)-7-(4-chlorobenzyl)-6-((1-cyclobutylethyl)amino)-8-(2-(2-methoxyethoxy)-5-methylphenyl)-7H-purine-2-carboxylic acid] | 55
COCCOc1ccc(C)cc1-c1nc2nc(C(=O)O)nc(N[C@H](C)C3CC3)c2n1Cc1ccc(Cl)cc1 [Example 4.9, (R)-7-(4-chlorobenzyl)-6-((1-cyclopropylethyl)amino)-8-(2-(2-methoxyethoxy)-5-methylphenyl)-7H-purine-2-carboxylic acid] | 27.3
Cc1ccc(OCCO)c(-c2nc3nc(C(=O)O)nc(N[C@H](C)C4CC4)c3n2Cc2ccc(Cl)cc2)c1 [Example 4.10, (R)-7-(4-chlorobenzyl)-6-((1-cyclopropylethyl)amino)-8-(2-(2-hydroxyethoxy)-5-methylphenyl)-7H-purine-2-carboxylic acid] | 238
Cc1ccc(OCCC(=O)O)c(-c2nc3nc(C(=O)O)nc(N[C@H](C)C4CC4)c3n2Cc2ccc(Cl)cc2)c1 [Example 4.11, (R)-8-(2-(2-carboxyethoxy)-5-methylphenyl)-7-(4-chlorobenzyl)-6-((1-cyclopropylethyl)amino)-7H-purine-2-carboxylic acid] | 312
Cc1ccc(OCCC(=O)NCCO)c(-c2nc3nc(C(=O)O)nc(N[C@H](C)C4CC4)c3n2Cc2ccc(Cl)cc2)c1 [Example 4.12, (R)-7-(4-chlorobenzyl)-6-((1-cyclopropylethyl)amino)-8-(2-(3-((2-hydroxyethyl)amino)-3-oxopropoxy)-5-methylphenyl)-7H-purine-2-carboxylic acid] | 348
CNC(=O)CCOc1ccc(C)cc1-c1nc2nc(C(=O)O)nc(N[C@H](C)C3CC3)c2n1Cc1ccc(Cl)cc1 [Example 4.13, (R)-7-(4-chlorobenzyl)-6-((1-cyclopropylethyl)amino)-8-(5-methyl-2-(3-(methylamino)-3-oxopropoxy)phenyl)-7H-purine-2-carboxylic acid] | 487
Cc1ccc(OCCCN2CCOCC2)c(-c2nc3nc(C(=O)O)nc(N[C@H](C)C4CC4)c3n2Cc2ccc(Cl)cc2)c1 [Example 4.14, (R)-7-(4-chlorobenzyl)-6-((1-cyclopropylethyl)amino)-8-(5-methyl-2-(3-morpholinopropoxy)phenyl)-7H-purine-2-carboxylic acid] | 212
COCCN(CCCOc1ccc(C)cc1-c1nc2nc(C(=O)O)nc(N[C@H](C)C3CC3)c2n1Cc1ccc(Cl)cc1)CCOC [Example 4.15, (R)-8-(2-(3-(bis(2-methoxyethyl)amino)propoxy)-5-methylphenyl)-7-(4-chlorobenzyl)-6-((1-cyclopropylethyl)amino)-7H-purine-2-carboxylic acid] | 667
Cc1ccc(OCCCO)c(-c2nc3nc(C(=O)O)nc(N[C@H](C)C4CC4)c3n2Cc2ccc(C#N)cc2)c1 [Example 4.16, (R)-7-(4-cyanobenzyl)-6-((1-cyclopropylethyl)amino)-8-(2-(3-hydroxypropoxy)-5-methylphenyl)-7H-purine-2-carboxylic acid] | 481
Cc1ccc(OCCCN2CCN(C)CC2)c(-c2nc3nc(C(=O)O)nc(N[C@H](C)C4CC4)c3n2Cc2ccc(Cl)cc2)c1 [Example 4.17, (R)-7-(4-chlorobenzyl)-6-(1-cyclopropylethylamino)-8-(5-methyl-2-(3-(4-methylpiperazin-1-yl)propoxy)phenyl)-7H-purine-2-carboxylic acid] | 507

Reference: patent EP2951180B1, “2,6,7,8 SUBSTITUTED PURINES AS HDM2 INHIBITORS” (Merck Sharp & Dohme Corp., priority 2013, dated 2014)
